Patent US8545830B2, “Multi-functional polymeric materials and their uses” (University of Tennessee Research Foundation, priority 2003, dated 2013)

Experiment: In vitro release of model drugs methylene blue and BSA from NIPAAm-co-Dex-lactateHEMA hydrogel
Assay type: physicochemical
Conditions: methylene blue from NIPAAm-co-Dex-lactateHEMA gel 5/4 (FIG. 9), PBS pH 7.4, 37° C.
Experimental: To test the potential of the developed hydrogels as drug release devices, two model drugs (22.5 mg) were loaded during the hydrogel synthesis, which were methylene blue and bovine serum albumin (BSA), representing small molecules and protein drugs, respectively. BSA- or methylene blue-loaded dry gels were immersed in a certain volume of PBS (pH 7.4) at 25 or 37° C. At selected time points, small volume of samples were taken and tested for solute concentration. The same volume of fresh PBS (pH 7.4) was replaced to maintain a constant volume of release medium. Concentration of methylene blue was measured by a UV spectrophotometer at 668 nm. Concentration of BSA was determined through Bradford protein assay.

For CN(C)c1ccc2nc3ccc(=[N+](C)C)cc-3sc2c1 [methylene blue], the “loaded drug released in initial burst” value was “more than 70%” and the “time after which drug release reached a stable stage” value was “three”.
